The values below come from patent US20090117563A1, “Identification of TRPML3 (MCOLN3) as a Salty Taste Receptor and Use in Assays for Identifying Taste (Salty) Modulators and/or Therapeutics that Modulate Sodium Transport, Absorption or Excretion and/or Aldosterone and/or Vasopressin Production or Release” (priority 2007, published 2009).

The target in this experiment is T1, human TRPML3 (Homo sapiens, UniProt Q8TDD5).
T1 construct: expressed in transfected cells
T1 sequence (Q8TDD5 1-553): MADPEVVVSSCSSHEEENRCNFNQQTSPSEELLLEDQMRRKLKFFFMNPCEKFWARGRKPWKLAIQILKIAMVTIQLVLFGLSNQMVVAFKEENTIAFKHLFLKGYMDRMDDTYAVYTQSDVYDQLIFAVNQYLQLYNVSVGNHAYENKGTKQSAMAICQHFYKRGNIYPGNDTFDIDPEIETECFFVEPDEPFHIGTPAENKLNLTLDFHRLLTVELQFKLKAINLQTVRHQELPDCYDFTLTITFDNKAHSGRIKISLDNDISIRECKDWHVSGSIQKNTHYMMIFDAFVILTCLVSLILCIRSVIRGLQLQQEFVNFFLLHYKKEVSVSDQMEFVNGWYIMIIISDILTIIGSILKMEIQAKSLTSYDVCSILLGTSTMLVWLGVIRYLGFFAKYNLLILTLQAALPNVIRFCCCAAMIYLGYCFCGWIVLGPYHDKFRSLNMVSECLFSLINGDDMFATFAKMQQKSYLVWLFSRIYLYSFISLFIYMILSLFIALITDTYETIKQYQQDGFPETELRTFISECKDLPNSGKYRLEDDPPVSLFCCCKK
Put plainly: Two-electrode voltage clamp in oocytes injected with human TRPML3 cRNA. The experiment is classed as cell-based. As to conditions: 300 uM gadolinium (GdCl3) solution; −100 to +60 mV. On the procedure:
Twenty-four to forty-eight hours following microinjection of 10-25 ng human TRPML3 cRNA, TRPML3 function is measured in oocytes using the two-electrode voltage clamp technique on an OpusXpress 6000A parallel oocyte voltage clamp system (MDS Analytical Technologies). The two-electrode voltage clamp technique is an electrophysiology method that measures the macroscopic electrical current flowing across the entire oocyte membrane though protein channels (Stuhmer, Methods in Enzymology (1992) 207: 319-339). Oocytes are impaled with a voltage-sensing electrode and a current-sensing electrode; the voltage, or potential difference across the oocyte membrane, is clamped to a particular value using the voltage-sensing electrode and the current, or the flow of ions across the oocyte membrane, required to maintain that voltage is measured using the current-sensing electrode. […]
If the compound functions as a TRPML3 enhancer, the current passing through TRPML3 channels in the oocyte membrane increases (becomes more negative). […] To quantitate the effect of a compound on TRPML3 function, the following formula is used: […]
This value corresponds to the magnitude of the current change due to compound divided by the magnitude of the current change due to NMDG multiplied by −100%. […] All four oocytes expressed TRPML3, as evidenced by the inhibitory effect of NMDG on measured oocyte currents. […]
In general terms: Two-electrode voltage clamp holds a large cell at a set potential and records current.

For the compound `[Cl][Gd]([Cl])[Cl]` [gadolinium, gadolinium chloride], the “effect on TRPML3 current and slope of the I/V curve” value was “blocks TRPML3 current and decreases the slope of the I/V curve”.
